# Reference: ChEMBL document CHEMBL1131330, “d-Fused [1]benzazepines with selective in vitro antitumor activity: synthesis and structure-activity relationships” (1998)
# How the values were obtained:
# Format in all cases: functional
# TK-10 [1] = test: Compound was tested for antitumor activity against TK-10 renal cancer cell line(molar concentration leading to 50% net cell death); conditions: Homo sapiens
# 786-0 [2] = test: Compound was tested for antitumor activity against 786-0 renal cancer cell line(molar concentration that inhibits 50% net cell growth).; conditions: Homo sapiens
# 786-0 [3] = test: Compound was tested for antitumor activity against 786-0 renal cancer cell line(molar concentration leading to 50% net cell death); conditions: Homo sapiens, read-out: Log LC50 (the source's name) (converted)
# TK-10 [4] = test: Compound was tested for antitumor activity against TK-10 renal cancer cell line(molar concentration that inhibits 50% net cell growth); conditions: Homo sapiens
# ACHN [5] = test: Compound was tested for antitumor activity against ACHN renal cancer cell line(molar concentration that inhibits 50% net cell growth).; conditions: Homo sapiens
# ACHN [6] = test: Compound was tested for antitumor activity against ACHN renal cancer cell line(molar concentration leading to 50% net cell death).; conditions: Homo sapiens
structure (smiles),measurement,setting,value
O=C1Cc2c(-c3ccccc3)cc(-c3ccccc3)nc2-c2cc(Br)ccc2N1,LC50 (concentration causing 50% net cell death),TK-10 [1],9.12 µM
same,GI50,786-0 [2],0.631 µM
same,CC50,786-0 [3],4.79 µM
same,GI50,TK-10 [4],0.427 µM
same,GI50,ACHN [5],1.26 µM
same,LC50 (50% net cell death),ACHN [6],15.5 µM
SC1=Nc2ccccc2-c2nc(-c3cccc(Cl)c3)cc(-c3ccccc3)c2C1,LC50 (concentration causing 50% net cell death),TK-10 [1],9.55 µM
same,GI50,786-0 [2],0.977 µM
same,CC50,786-0 [3],4.79 µM
same,GI50,TK-10 [4],0.437 µM
same,GI50,ACHN [5],0.617 µM
same,LC50 (50% net cell death),ACHN [6],19.1 µM
O=C1Cc2c(-c3ccccc3)cc(-c3ccccc3)nc2-c2ccccc2N1,LC50 (concentration causing 50% net cell death),TK-10 [1],> 100 µM
same,GI50,786-0 [2],4.17 µM
same,CC50,786-0 [3],> 100 µM
same,GI50,TK-10 [4],2.45 µM
same,GI50,ACHN [5],4.07 µM
same,LC50 (50% net cell death),ACHN [6],70.8 µM
O=C1Cc2c(-c3ccccc3)cc(-c3cccc(Cl)c3)nc2-c2ccccc2N1,LC50 (concentration causing 50% net cell death),TK-10 [1],17.4 µM
same,GI50,786-0 [2],0.977 µM
same,CC50,786-0 [3],5.37 µM
same,GI50,TK-10 [4],1.48 µM
same,GI50,ACHN [5],1.15 µM
same,LC50 (50% net cell death),ACHN [6],24.5 µM
O=C1Cc2c(-c3ccc(Br)cc3)cc(-c3ccccc3)nc2-c2ccccc2N1,LC50 (concentration causing 50% net cell death),TK-10 [1],2.24 µM
same,GI50,786-0 [2],1.62 µM
same,CC50,786-0 [3],9.55 µM
same,GI50,TK-10 [4],0.186 µM
same,GI50,ACHN [5],3.98 µM
same,LC50 (50% net cell death),ACHN [6],50.1 µM
SC1=Nc2ccc(Br)cc2-c2nc(-c3ccccc3)cc(-c3ccccc3)c2C1,LC50 (concentration causing 50% net cell death),TK-10 [1],18.6 µM
same,GI50,786-0 [2],1.17 µM
same,CC50,786-0 [3],7.08 µM
same,GI50,TK-10 [4],1.23 µM
same,GI50,ACHN [5],0.741 µM
same,LC50 (50% net cell death),ACHN [6],8.51 µM
SC1=Nc2ccccc2-c2nc(-c3ccccc3)cc(-c3ccc(Br)cc3)c2C1,LC50 (concentration causing 50% net cell death),TK-10 [1],7.76 µM
same,GI50,786-0 [2],0.631 µM
same,CC50,786-0 [3],4.47 µM
same,GI50,TK-10 [4],1.78 µM
same,GI50,ACHN [5],0.871 µM
same,LC50 (50% net cell death),ACHN [6],5.89 µM
